The source made the active and inactive calls. The rule behind the calls is not given here.
Key:
4T1 [1] = assay: Cytotoxicity against mouse 4T1 cells assessed as inhibition of cell growth at 1 to 100 uM incubated for 48 hrs by CCK-8 assay; assay type: functional, cell-based; settings: dose 1-100 µM
[2] = biological target: Protein cereblon/Hexokinase-2 (Homo sapiens) (UniProt P52789+Q96SW2); assay: PROTAC activity at CRBN/HK2 in human MDA-MB-231 cells assessed as […] ternary complex formation at 10 uM incubated for 24 hrs in presence of MG132; assay type: cell-based
Chain of Protein cereblon/Hexokinase-2 (Homo sapiens) (P52789 whole entry, looked up): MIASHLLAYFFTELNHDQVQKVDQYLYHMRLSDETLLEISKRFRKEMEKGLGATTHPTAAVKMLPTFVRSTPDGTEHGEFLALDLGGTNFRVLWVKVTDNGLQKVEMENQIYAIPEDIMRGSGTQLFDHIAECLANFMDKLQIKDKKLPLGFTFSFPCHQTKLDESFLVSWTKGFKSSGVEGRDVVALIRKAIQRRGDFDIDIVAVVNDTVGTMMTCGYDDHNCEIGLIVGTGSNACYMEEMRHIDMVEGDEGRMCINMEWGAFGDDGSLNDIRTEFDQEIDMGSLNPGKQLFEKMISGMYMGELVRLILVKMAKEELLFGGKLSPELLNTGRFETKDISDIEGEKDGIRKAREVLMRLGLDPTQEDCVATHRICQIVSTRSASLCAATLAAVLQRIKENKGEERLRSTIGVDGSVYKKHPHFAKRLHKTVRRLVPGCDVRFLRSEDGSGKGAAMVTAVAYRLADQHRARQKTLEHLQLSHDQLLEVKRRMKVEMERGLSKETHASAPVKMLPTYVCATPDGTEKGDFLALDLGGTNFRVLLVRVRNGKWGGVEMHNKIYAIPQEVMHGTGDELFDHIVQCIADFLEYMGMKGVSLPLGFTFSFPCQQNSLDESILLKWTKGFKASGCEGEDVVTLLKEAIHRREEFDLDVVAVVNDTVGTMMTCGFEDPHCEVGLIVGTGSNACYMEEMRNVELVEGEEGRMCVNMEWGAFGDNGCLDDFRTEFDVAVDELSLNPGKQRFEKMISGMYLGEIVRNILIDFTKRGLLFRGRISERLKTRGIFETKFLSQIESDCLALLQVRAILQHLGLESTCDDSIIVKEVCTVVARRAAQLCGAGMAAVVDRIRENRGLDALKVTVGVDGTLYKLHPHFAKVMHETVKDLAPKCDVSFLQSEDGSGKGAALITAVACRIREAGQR
Chain of Protein cereblon/Hexokinase-2 (Homo sapiens) (Q96SW2 whole entry, looked up): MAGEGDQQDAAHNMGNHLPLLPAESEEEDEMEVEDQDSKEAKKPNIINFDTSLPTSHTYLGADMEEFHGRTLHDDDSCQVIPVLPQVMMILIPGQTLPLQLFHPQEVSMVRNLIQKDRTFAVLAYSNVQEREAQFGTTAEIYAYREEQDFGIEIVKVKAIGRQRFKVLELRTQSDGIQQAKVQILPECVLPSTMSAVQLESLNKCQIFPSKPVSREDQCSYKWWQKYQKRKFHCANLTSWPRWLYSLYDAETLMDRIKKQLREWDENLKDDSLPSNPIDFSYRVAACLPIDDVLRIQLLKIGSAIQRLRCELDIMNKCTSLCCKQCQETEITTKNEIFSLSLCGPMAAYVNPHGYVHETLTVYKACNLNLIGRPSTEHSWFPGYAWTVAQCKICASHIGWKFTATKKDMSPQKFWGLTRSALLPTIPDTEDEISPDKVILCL

4T1 [3] = assay: Induction of pyroptosis in mouse 4T1 cells assessed as viable cells at 20 uM incubated for 36 hrs by annexin V-FITC staining based flow cytometry analysis (reference value: 64 %); assay type: functional; settings: read-out: Activity
4T1 [4] = assay: Induction of pyroptosis in mouse 4T1 cells assessed as early apoptotic cells at 20 uM incubated for 36 hrs by annexin V-FITC staining based flow cytometry analysis (reference value: 4.76 %); assay type: functional
4T1 [5] = assay: Induction of pyroptosis in mouse 4T1 cells assessed as dead cells at 20 uM incubated for 36 hrs by annexin V-FITC staining based flow cytometry analysis (Rvb =17.6 %); assay type: functional
MDA-MB-231 [6] = assay: Induction of pyroptosis in human MDA-MB-231 cells assessed as decrease in full length GSDME level at 20 uM incubated for 36 hrs by Western blot analysis; assay type: functional, cell-based
4T1 [7] = assay: Antitumor immunity against mouse 4T1 cells implanted in BALB/c mouse model assessed as increase in HMGB1 release in cell supernatant at 20 uM measured for 36 hrs by ELISA analysis; assay type: functional, cell-based
4T1 [8] = assay: Antitumor immunity against mouse 4T1 cells implanted in BALB/c mouse model assessed as increase in LDH release in cell supernatant at 20 uM measured for 36 hrs by ELISA analysis; assay type: functional, cell-based
4T1 [9] = assay: Downregulation of PD-L1 expression in mouse 4T1 cells membrane at 20 uM measured for 36 hrs; assay type: functional, cell membranes
[10] = Toxicity in BALB/c mouse implanted wth mouse 4T1 cells assessed as effect on body weight at 50 mg/kg, ip measured after 23 days; assay type: organism-based; settings: in vivo, 552 h, time 23 day
[11] = Toxicity in BALB/c mouse implanted with mouse 4T1 cells assessed as pathological changes in lung at 50 mg/kg, ip measured after 25 days by Hematoxylin -eosin staining based analysis; assay type: organism-based; settings: in vivo, 600 h, time 25 day
[12] = Toxicity in BALB/c mouse implanted with mouse 4T1 cells assessed as effect on red blood cells at 50 mg/kg, ip measured after 25 days by routine blood test; assay type: organism-based; settings: in vivo, 600 h, time 25 day
[13] = Toxicity in BALB/c mouse implanted with mouse 4T1 cells assessed as effect on mean corpuscular hemoglobin at 50 mg/kg, ip measured after 25 days by routine blood test; assay type: organism-based; settings: in vivo, 600 h, time 25 day
4T1 [14] = assay: Antitumor activity against mouse 4T1 cells implanted in BALB/c mouse model assessed as nucleus damage at 50 mg/kg, ip measured after 25 days by TUNEL staining based analysis; assay type: functional, organism-based; settings: time 25.0 day
4T1 [15] = assay: Antitumor immunity against mouse 4T1 cells implanted in BALB/c mouse model assessed as upregulation of Il-1beta expression in mouse tumor by ELISA analysis; assay type: functional, cell-based
4T1 [16] = assay: Antitumor immunity against mouse 4T1 cells implanted in BALB/c mouse model assessed as decrease in PD-L1 protein expression in tumor; assay type: functional, cell-based
4T1 [17] = assay: Antitumor immunity activity against mouse 4T1 cells implanted in BALB/c mouse assessed as increase in proportion of […] positive T cells in tumor by flow cytometry analysis; assay type: functional, cell-based
MDA-MB-231 [18] = assay: Antitumor activity against human MDA-MB-231 cells xenografted in BALB/c nude mouse assessed as reduction in tumor growth at 50 mg/kg, ip measured after 28 days; assay type: functional, organism-based; settings: time 28.0 day
[19] = Toxicity in BALB/c nude mouse xenografted with human MDA-MB-231 cells assessed as effect on platelet count at 50 mg/kg, ip measured after 30 days by routine blood test; assay type: organism-based; settings: in vivo, 720 h, time 30 day
[20] = Toxicity in BALB/c nude mouse xenografted with human MDA-MB-231 cells assessed as effect on hematocrit level at 50 mg/kg, ip measured after 30 days by routine blood test; assay type: organism-based; settings: in vivo, 720 h, time 30 day
[21] = Toxicity in BALB/c nude mouse xenografted with human MDA-MB-231 cells assessed as effect on hemoglobin level at 50 mg/kg, ip measured after 30 days by routine blood test; assay type: organism-based; settings: in vivo, 720 h, time 30 day
[22] = Toxicity in BALB/c nude mouse xenografted with human MDA-MB-231 cells assessed as effect on red blood cells at 50 mg/kg, ip measured after 30 days by routine blood test; assay type: organism-based; settings: in vivo, 720 h, time 30 day
[23] = Toxicity in BALB/c nude mouse xenografted with human MDA-MB-231 cells assessed as body weight loss at 50 mg/kg, ip measured after 30 days; assay type: organism-based; settings: in vivo, 720 h, time 30 day
4T1 [24] = assay: Antitumor activity against mouse 4T1 cells implanted in BALB/c mouse assessed as reduction in HK2 proetin level […] at 50 mg/kg, ip measured after 25 days in presence of cisplatin by Western blot analysis; assay type: functional, organism-based; settings: time 25.0 day
[25] = Toxicity in BALB/c mouse implanted with mouse 4T1 cells assessed as effect on hemoglobin level at 50 mg/kg, ip measured after 25 days in presence of cisplatin by routine blood test; assay type: organism-based; settings: in vivo, 600 h, time 25 day
[26] = Toxicity in BALB/c mouse implanted with mouse 4T1 cells assessed as effect on mean corpuscular hemoglobin concentration at 50 mg/kg, ip measured after 25 days in presence of cisplatin by routine blood test; assay type: organism-based; settings: in vivo, 600 h, time 25 day
[27] = Toxicity in BALB/c mouse implanted with mouse 4T1 cells assessed as pathological changes in heart at 50 mg/kg, ip measured after 25 days in presence of cisplatin by Hematoxylin -eosin staining based analysis; assay type: organism-based; settings: in vivo, 600 h, time 25 day

In the case of O=C1CCC(N2C(=O)c3cccc(NCCCCNC(=O)c4nn(Cc5ccc(Cl)cc5Cl)c5ccccc45)c3C2=O)C(=O)N1 (configuration not stated), the Activity (4T1 [1]) is reported as “Active”, the Activity [2] is reported as “inactive” and the viability at 20 µM (4T1 [3]) is reported as 37.7%. For the same compound, the Activity (4T1 [4]) was 9.85%, the Activity (4T1 [5]) was 9.44% and the Activity (MDA-MB-231 [6]) was “Active”. The Activity (4T1 [7]) was “Active”, the Activity (4T1 [8]) was “Active” and the Activity (4T1 [9]) was “Active”. For the same compound, the Activity [10] was “Non-Toxic”, the Activity [11] was “Non-Toxic” and the Activity [12] was “Non-Toxic”. The Activity [13] was “Non-Toxic”, the Activity (4T1 [14]) was “Active” and the Activity (4T1 [15]) was “Active”. The Activity (4T1 [16]) was “Active”, the Activity (4T1 [17]) was “Active” and the Activity (MDA-MB-231 [18]) was “Active”. For the same compound, the Activity [19] was “Non-Toxic”, the Activity [20] was “Non-Toxic” and the Activity [21] was “Non-Toxic”. For the same compound, the Activity [22] was “Non-Toxic”, the Activity [23] was “Non-Toxic” and the Activity (4T1 [24]) was “Active”. The Activity [25] was “Non-Toxic”, the Activity [26] was “Non-Toxic” and the Activity [27] was “Non-Toxic”.

From ChEMBL document CHEMBL5331124, “Degradation of Hexokinase 2 Blocks Glycolysis and Induces GSDME-Dependent Pyroptosis to Amplify Immunogenic Cell Death for Breast Cancer Therapy” (J Med Chem, 2023)
